From patent US6630500B2, “Selected fused pyrrolocarbazoles” (Cephalon, Inc., priority 2000, dated 2003) come the findings set out here.

The term IC50 denotes the concentration that inhibits the measured activity by half.

Holding throughout (assay type): biochemical
Test [1] deals with T1, VEGF receptor (human flk-1, KDR, VEGFR2) kinase domain (Homo sapiens, UniProt P35968).
T1 construct: VEGF receptor (human flk-1, KDR, VEGFR2) kinase domain; made in house
In words: Inhibition of VEGF receptor kinase activity (ELISA). The following applies: 40 μM ATP; for IC50: values without % sign; for inhibition at 0.3 µM: 300 nM compound, read-out: VEGFR2 % inh. @ 300 nM. On the procedure: Fused pyrrolocarbazole compounds were examined for their inhibitory effects on the kinase activity of baculovirus-expressed VEGF receptor (human flk-1, KDR, VEGFR2) kinase domain using the procedure described for the trkA kinase ELISA assay described below. The kinase reaction mixture, consisting of 50 mM Hepes, pH 7.4, 40 μM ATP, 10 mM MnCl2, 0.1% BSA, 2% DMSO, and various concentrations of inhibitor, was transferred to PLC-γ/GST-coated plates. VEGFR kinase was added and the reaction was allowed to proceed for 15 min. at 37° C. Detection of phosphorylated product was accomplished by addition of anti-phosphotyrosine antibody (UBI). A secondary enzyme-conjugated antibody was delivered to capture the antibody-phosphorylated PLC-γ/GST complex. The activity of the bound enzyme was measured via an amplified detection system (Gibco-BRL). Inhibition data were analyzed using the sigmoidal dose-response (variable slope) equation in GraphPad Prism.
Selected isomeric fused pyrrolocarbazole and isoindolone compounds can be tested for their ability to inhibit the kinase activity of baculovirus-expressed human trkA cytoplasmic domain using an ELISA-based assay as previously described (Angeles et al., Anal. Biochem. 236: 49-55, 1996). Briefly, the 96-well microtiter plate is coated with substrate solution (recombinant human phospholipase C-γl/glutathione S-transferase fusion protein (Rotin et al., EMBO J., 11: 559-567, 1992). Inhibition studies are performed in 100 μl assay mixtures containing 50 mM Hepes, pH 7.4, 40 μM ATP, 10 mM MnCl2, 0.1% BSA, 2% DMSO, and various concentrations of inhibitor. The reaction is initiated by addition of trkA kinase and allowed to proceed for 15 minutes at 37° C. An antibody to phosphotyrosine (UBI) is then added, followed by a secondary enzyme-conjugated antibody, alkaline phosphatase-labelled goat anti-mouse IgG (Bio-Rad). The activity of the bound enzyme is measured via an amplified detection system (Gibco-BRL). Inhibition data are analyzed using the sigmoidal dose-response (variable slope) equation in GraphPad Prism.

A further test has as its target T2, MLK1 (Homo sapiens, UniProt P80192).
T2 construct: 1 μg/ml of baculoviral GST-MLK1KD; GST (N); made in house
In words: Inhibition of Mixed Lineage Kinase-1 (MLK1) activity. Particulars: 60 μM ATP; for IC50: values without % sign; for inhibition at 0.1 µM: 100 nM compound. On the procedure:
The kinase activity of MLK1 was assessed using the Millipore Multiscreen TCA “in-plate” format as described for protein kinase C (Pitt & Lee, J. Biomol. Screening, 1: 47-51, 1996). Briefly, each 50-μl assay mixture contained 20 mM Hepes, pH 7.2, 5 mM EGTA, 15 mM MgCl2, 25 mM β-glycerophosphate, 60 μM ATP, 0.25 μCi [γ-^32P]ATP, 0.1% BSA, 500 μ/ml myelin basic protein (UBI #13-104), 2% DMSO, […], and 1 μg/ml of baculoviral GST-MLK1KD. Samples were incubated for 15 min at 37° C. The reaction was stopped by adding ice cold 50% TCA and the proteins were allowed to precipitate for 30 min at 4° C. The plates were then washed with ice cold 25% TCA. Supermix scintillation cocktail was added, and the plates were allowed to equilibrate for 1-2 hours prior to counting using the Wallac MicroBeta 1450 PLUS scintillation counter.

The next test concerns the target T3, MLK2 (Homo sapiens, UniProt Q02779).
T3 construct: fused on or other part: GST tag
In words: Inhibition of Mixed Lineage Kinase-2 (MLK2) activity. The following applies: 100 μM ATP; for IC50: values without % sign; for inhibition at 0.1 µM: 100 nM compound. On the procedure: (§1) The kinase activity of MLK1 was assessed using the Millipore Multiscreen TCA “in-plate” format as described for protein kinase C (Pitt & Lee, J. Biomol. Screening, 1: 47-51, 1996). Briefly, each 50-μl assay mixture contained 20 mM Hepes, pH 7.2, 5 mM EGTA, 15 mM MgCl2, 25 mM β-glycerophosphate, 60 μM ATP, 0.25 μCi [γ-^32P]ATP, 0.1% BSA, 500 μ/ml myelin basic protein (UBI #13-104), 2% DMSO, 1 μM of test compound, and 1 μg/ml of baculoviral GST-MLK1KD. Samples were incubated for 15 min at 37° C. The reaction was stopped by adding ice cold 50% TCA and the proteins were allowed to precipitate for 30 min at 4° C. The plates were then washed with ice cold 25% TCA. Supermix scintillation cocktail was added, and the plates were allowed to equilibrate for 1-2 hours prior to counting using the Wallac MicroBeta 1450 PLUS scintillation counter.
(§2) Assays were performed using the Millipore Multiscreen plate format as described for MLK1. Each 50-μl assay mixture contained 20 mM Hepes, pH 7.2, 5 mM EGTA, 15 mM MgCl2, 25 mM β-glycerophosphate, 100 μM ATP, 0.25 μCi [γ-^32P]ATP, 0.1% BSA, 500 μg/ml myelin basic protein (UBI #13-104), 2% DMSO, various concentrations of test compound, and 3 μg/ml of baculoviral GST-MLK2KDLZ. Samples were incubated for 15 min. at 37° C. The reaction was stopped by adding ice cold 50% TCA and the proteins were allowed to precipitate for 30 min at 4° C. The plates were then washed with ice cold 25% TCA. Supermix scintillation cocktail was added, and the plates were allowed to equilibrate for 1-2 hours prior to counting.

A further test deals with T4, MLK3 (Homo sapiens, UniProt Q16584).
T4 construct: 2 μg/ml of baculoviral GST-MLK3KD; GST (N); made in house
T4 sequence (Q16584 117-379 limits assumed, species assumed): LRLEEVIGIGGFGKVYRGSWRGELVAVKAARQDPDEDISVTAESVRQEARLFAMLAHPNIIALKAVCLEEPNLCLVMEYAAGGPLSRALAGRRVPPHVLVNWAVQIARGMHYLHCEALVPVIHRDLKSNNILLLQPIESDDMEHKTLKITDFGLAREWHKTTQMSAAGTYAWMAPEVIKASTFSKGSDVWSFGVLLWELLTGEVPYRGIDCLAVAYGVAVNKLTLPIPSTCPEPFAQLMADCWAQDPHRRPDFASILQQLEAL
In words: Inhibition of Mixed Lineage Kinase-3 (MLK3) activity. The following applies: 100 μM ATP; for IC50: values without % sign; for inhibition at 0.1 µM: 100 nM compound. On the procedure: as §1
as §2, with “MLK1. Briefly, each” for “MLK1. Each”, “and 2” for “and 3”, “baculoviral GST-MLK3KD. Sample” for “baculoviral GST-MLK2KDLZ. Samples”, “15 min” for “15 min.”

T2 sequence (P80192 144-412 limits assumed, species assumed): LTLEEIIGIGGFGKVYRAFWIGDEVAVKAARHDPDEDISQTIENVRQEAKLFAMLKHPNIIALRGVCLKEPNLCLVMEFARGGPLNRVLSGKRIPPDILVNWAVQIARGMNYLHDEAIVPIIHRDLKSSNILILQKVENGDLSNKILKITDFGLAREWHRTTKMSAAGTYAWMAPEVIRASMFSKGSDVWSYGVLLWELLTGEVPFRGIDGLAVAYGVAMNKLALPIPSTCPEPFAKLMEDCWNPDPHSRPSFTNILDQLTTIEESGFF
T1 sequence (P35968 834-1162 limits assumed): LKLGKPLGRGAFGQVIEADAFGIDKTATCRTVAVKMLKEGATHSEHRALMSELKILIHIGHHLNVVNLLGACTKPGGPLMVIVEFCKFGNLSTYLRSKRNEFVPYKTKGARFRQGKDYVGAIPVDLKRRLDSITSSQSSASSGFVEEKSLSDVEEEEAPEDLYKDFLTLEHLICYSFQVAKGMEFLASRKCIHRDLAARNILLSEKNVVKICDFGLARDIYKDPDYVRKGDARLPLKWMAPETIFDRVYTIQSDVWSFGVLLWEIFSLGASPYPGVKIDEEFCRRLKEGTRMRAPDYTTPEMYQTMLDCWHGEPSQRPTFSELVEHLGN
T3 sequence (Q02779 98-440 limits assumed): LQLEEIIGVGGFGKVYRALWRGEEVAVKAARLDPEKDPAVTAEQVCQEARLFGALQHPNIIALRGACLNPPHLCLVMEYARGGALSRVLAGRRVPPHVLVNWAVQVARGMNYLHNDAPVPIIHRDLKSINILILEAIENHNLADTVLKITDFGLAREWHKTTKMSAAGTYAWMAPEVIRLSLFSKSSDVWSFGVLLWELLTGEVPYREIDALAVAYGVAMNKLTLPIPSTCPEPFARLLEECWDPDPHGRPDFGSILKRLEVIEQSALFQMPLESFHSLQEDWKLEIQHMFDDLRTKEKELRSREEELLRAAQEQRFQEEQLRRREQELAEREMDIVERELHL

Consider `CCOC(C)c1ccc2c(c1)c1c3c(c4c(c1n2CCCO)Cc1ccccc1-4)C(=O)NC3` (single isomer, unassigned) [Compound 12], for which the IC50 in test [1] came to 240 nM; against MLK1 it was 28 nM; at MLK2 it was 131 nM; at MLK3 it was 16 nM.
As to `O=C1NCc2c1c1c(c3c2c2ccccc2n3CCO)Cc2ccccc2-1` [A, reference compound], the results for the IC50 (in test [1]; against MLK1; against MLK3) were 107 nM, 22 nM and 8 nM, respectively. Further, the inhibition at 0.1 µM against MLK2 is 39%.
`CC(C)CC(N)C(=O)OCCCn1c2ccccc2c2c3c(c4c(c21)Cc1ccccc1-4)C(=O)NC3` (stereo not drawn) [C, reference compound]: the inhibition at 0.3 µM in test [1] worked out at 17%. For the same compound, the inhibition at 0.1 µM came out at 8% against MLK1, 0% against MLK2 and 30% at MLK3.
Regarding `CC[C@@H](C)OCc1ccc2c(c1)c1c3c(c4c(c1n2CCCO)Cc1ccccc1-4)C(=O)NC3` [Compound 5], the results for the IC50 (in test [1]; against MLK1; on MLK3) were 12 nM, 27 nM and 16 nM, respectively. Also, the inhibition at 0.1 µM against MLK2 was determined as 45%.
As for `CC[C@H](C)OCc1ccc2c(c1)c1c3c(c4c(c1n2CCCO)Cc1ccccc1-4)C(=O)NC3` [Compound 6], the IC50 in test [1] is 19 nM; on MLK1, 38 nM; against MLK3 it was 19 nM. Further, the inhibition at 0.1 µM on MLK2 was 51%.
For `CCCOCc1ccc2c(c1)c1c3c(c4c(c1n2CCCO)Cc1ccccc1-4)C(=O)NC3` [Compound 8], the IC50 in test [1] is 13 nM; against MLK1, 19 nM; on MLK3, 13 nM. For the same compound, the inhibition at 0.1 µM against MLK2 amounted to 76%.
As to `COC(C)c1ccc2c(c1)c1c3c(c4c(c1n2CCCO)Cc1ccccc1-4)C(=O)NC3` (stereo not drawn) [Compound 13], the IC50 in test [1] stood at 73 nM; against MLK1, 20 nM; at MLK3, 26 nM. Moreover, the inhibition at 0.1 µM against MLK2 amounted to 62%.
On to `CC(C)(C)OCc1ccc2c(c1)c1c3c(c4c(c1n2CCCO)Cc1ccccc1-4)C(=O)NC3` [Compound 17], for which the IC50 in test [1] is 11 nM; against MLK1 it was 35 nM. Also, the inhibition at 0.1 µM against MLK2 amounted to 50%.
In the case of `CC(C)OCc1ccc2c(c1)c1c3c(c4c(c1n2CCCOC(=O)C(N)CCCCN)Cc1ccccc1-4)C(=O)NC3` (stereo not drawn) [Compound 19], in test [1], the inhibition at 0.3 µM was 60%. The figures for the inhibition at 0.1 µM against MLK1 and at MLK2 were 44% and 28%, respectively.
Turning to `CC(C)OCc1ccc2c(c1)c1c3c(c4c(c1n2CCCOC(=O)CCN)Cc1ccccc1-4)C(=O)NC3` [Compound 20], the IC50 in test [1] came to 31 nM; against MLK1, 42 nM; against MLK2 it was 229 nM; against MLK3, 32 nM.
With `CC(C)OCc1ccc2c(c1)c1c3c(c4c(c1n2CCCOC(=O)CN(C)C)Cc1ccccc1-4)C(=O)NC3` [Compound 22], the IC50 in test [1] was found to be 18 nM; at MLK1, 74 nM; on MLK2, 170 nM; against MLK3, 28 nM.
As for `CCSCc1ccc2c(c1)c1c3c(c4c(c1n2CCO)Cc1ccccc1-4)C(=O)NC3` [Compound 24], the inhibition at 0.3 µM in test [1] was 31%. The inhibition at 0.1 µM against MLK1 came to 62%; on MLK3 it was 55%.
Turning to `CCSCc1ccc2c(c1)c1c3c(c4c(c1n2CCCO)Cc1ccccc1-4)C(=O)NC3` [Compound 25], the IC50 in test [1] worked out at 21 nM; against MLK1, 22 nM; on MLK3, 12 nM.
As to `O=C1NCc2c1c1c(c3c2c2cc(CO)ccc2n3CCO)Cc2ccccc2-1` [Compound 28], the inhibition at 0.3 µM in test [1] was 34%. Besides, the values for the IC50 at MLK1 and at MLK3 were 76 nM and 74 nM, respectively.
Consider `CCOCc1ccc2[nH]c3c4c(c5c(c3c2c1)CNC5=O)-c1ccccc1C4` [Compound 31], for which the IC50 in test [1] was determined as 77 nM; at MLK1, 46 nM; at MLK3 it was 29 nM.
`CC(C)OCc1ccc2[nH]c3c4c(c5c(c3c2c1)CNC5=O)-c1ccccc1C4` [Compound 32]: the inhibition at 0.3 µM in test [1] amounted to 33%. For the same compound, the IC50 was determined as 24 nM against MLK1 and 19 nM against MLK3.
As for `CC(O)c1ccc2c(c1)c1c3c(c4c(c1n2CCCO)Cc1ccccc1-4)C(=O)NC3` (stereo not drawn) [Compound 33], the IC50 in test [1] is 111 nM; against MLK1, 50 nM; on MLK3, 16 nM.
In turn, `CCC(O)c1ccc2c(c1)c1c3c(c4c(c1n2CCCO)Cc1ccccc1-4)C(=O)NC3` (stereo not drawn) [Compound 34] yielded an IC50 in test [1] of 7 nM. Moreover, the results for the inhibition at 0.1 µM against MLK1 and on MLK3 were 45% and 32%, respectively.
In the case of `CC(O)c1ccc2[nH]c3c4c(c5c(c3c2c1)CNC5=O)-c1ccccc1C4` (stereo not drawn) [Compound 35], the inhibition at 0.3 µM in test [1] amounted to 37%. Moreover, the inhibition at 0.1 µM turned out to be 60% against MLK1 and 62% at MLK3.
Regarding `O=C1NCc2c1c1c(c3c2c2cc(CSc4ccccn4)ccc2n3CCCO)Cc2ccccc2-1` [Compound 38], in test [1], the inhibition at 0.3 µM was determined as 45%. The inhibition at 0.1 µM at MLK1 was 58%. This compound gave an IC50 against MLK3 of 30 nM.
As to `O=C1NCc2c1c1c(c3c2c2cc(CSc4ncccn4)ccc2n3CCCO)Cc2ccccc2-1` [Compound 39], the inhibition at 0.3 µM in test [1] turned out to be 13%. For the same compound, the inhibition at 0.1 µM on MLK1 worked out at 55%; against MLK3, 56%.
In the case of `CC(C)OCc1ccc2c(c1)c1c3c(c4c(c1n2CCCO)C(CO)c1ccccc1-4)C(=O)NC3` (stereo not drawn) [Compound 40], the results for the IC50 (in test [1]; at MLK1; against MLK2) were 16 nM, 21 nM and 86 nM, respectively.
`COc1ccc2[nH]c3c4c(c5c(c3c2c1)CNC5=O)-c1ccccc1C4` [D, reference compound]: the results for the IC50 (in test [1]; against MLK1) were 200 nM and 45 nM, respectively. In addition, the inhibition at 0.1 µM against MLK3 was determined as 43%.
